According to ChEMBL document CHEMBL1201862, “PubChem BioAssay data set” (2004):
Calls of active or inactive are those of the source. Rule as the data show it: active = IC50 of 10 µM or less and inactive = more.

How the values were obtained:
Format in all cases: functional
[1] = biological target: T1, Melanin-concentrating hormone receptor 1 (Homo sapiens, UniProt Q99705); assay: Late-stage fluorescence-based counterscreen for antagonists of the G-protein coupled receptor 7 (GPR7): cell-based dose response assay to identify antagonists of the melanin-concentrating hormone receptor 1 (MCHR1) Set 6.
T1 sequence (Q99705 whole entry): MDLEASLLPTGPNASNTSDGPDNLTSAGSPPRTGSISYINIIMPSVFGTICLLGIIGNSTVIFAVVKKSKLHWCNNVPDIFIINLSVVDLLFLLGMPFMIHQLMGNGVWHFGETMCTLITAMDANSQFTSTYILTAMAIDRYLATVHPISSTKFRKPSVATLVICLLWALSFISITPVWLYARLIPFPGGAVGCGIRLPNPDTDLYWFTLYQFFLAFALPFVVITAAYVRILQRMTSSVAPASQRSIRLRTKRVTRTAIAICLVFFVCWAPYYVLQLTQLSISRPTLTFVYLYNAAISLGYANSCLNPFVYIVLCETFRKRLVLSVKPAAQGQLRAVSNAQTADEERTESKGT

[2] = biological target: T2, Neuropeptides B/W receptor type 1 (Homo sapiens, UniProt P48145); assay: GPR7 antagonist potency, late-stage follow-up, cell-based, fluorescence, dose response, set 6 (AID 588583)
T2 sequence (P48145 whole entry): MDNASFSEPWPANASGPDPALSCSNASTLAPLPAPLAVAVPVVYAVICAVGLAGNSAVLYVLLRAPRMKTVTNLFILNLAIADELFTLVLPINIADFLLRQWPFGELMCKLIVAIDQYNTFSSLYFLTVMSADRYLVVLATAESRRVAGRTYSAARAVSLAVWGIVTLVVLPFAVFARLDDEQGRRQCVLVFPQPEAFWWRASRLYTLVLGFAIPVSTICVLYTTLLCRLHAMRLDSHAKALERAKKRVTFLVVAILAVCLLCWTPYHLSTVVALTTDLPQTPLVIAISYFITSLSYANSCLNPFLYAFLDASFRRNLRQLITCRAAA

[3] = biological target: T1, Melanin-concentrating hormone receptor 1; assay: Late-stage fluorescence-based counterscreen for antagonists of the G-protein coupled receptor 7 (GPR7): cell-based dose response assay to identify antagonists of the melanin-concentrating hormone receptor 1 (MCHR1) Set 5.
[4] = biological target: T2, Neuropeptides B/W receptor type 1; assay: GPR7 antagonist potency, late-stage follow-up, cell-based, fluorescence, dose response, set 5 (AID 588566)

CCc1c(C(C#N)c2ccccc2)cnn(Cc2cccc3ccccc23)c1=O (centres undefined)
IC50 [1]: 4.72 µM (active)
IC50 [2]: 4.72 µM (active)

COc1ccc(S(=O)(=O)c2c(Cl)cnn(Cc3cccc4ccccc34)c2=O)cc1
IC50 [3]: 4.44 µM (active)
IC50 [4]: ~6.06 µM (active)
